A short description of the data set: Pharmacokinetic study in naive mice after intraperitoneal injection. The conditions noted are these: 3 mg/kg; for V_F: uncorrected for bioavailability. The method, then: Nine-week-old male Swiss mice (Janvier Labs, Le Genest-Saint-Isle, France), weighing 35–45 g at the time of experimentation, were used. […] Food and tap water were given ad libitum.
Their hind legs were depilated after a 1 min application of a commercial depilatory cream and rinsed with water. Subsequently, the mice were returned to their cages to allow for recovery and complete anesthesia washout. On the day of the experiment, an initial blood sample (20–30 μL) was collected by perforation of the saphenous vein from the mice.
For each treatment group, mice were subdivided into two cohorts, with blood samples collected at distinct time intervals after injection, totaling 14 time points for pharmacokinetic modeling. Compliance with regulatory directives prevented the collection of more than eight blood samples from individual animals. […] Blood samples were acquired using heparinized capillaries containing 2 μL of sodium heparin (Panpharma, France). After collection, the samples were transferred to Eppendorf tubes and centrifuged at 3000 g and 4°C for 10 min. The recovered plasma was then stored at −80°C until analysis. At the end of the experiments, the mice were euthanized by i.p. lethal injection (150 mg/kg) of sodium pentobarbital (Doléthal, Vétoquinol SA, France).
Pharmacokinetic analysis was carried out from the average concentration values at each time point using the Phoenix WinNonLin Version 8.4 software (Certara, Princeton NJ, USA). Pharmacokinetic parameters were determined from the plasma concentration-time data using a compartmental approach and include the total area under the plasma concentration-time curve (AUC0-∞), elimination half-life (t1/2elim), total clearance (CL/F), and volume of distribution (V). CL and V were uncorrected for the bioavailability (F).

Setting [1] is: male, Swiss, mouse, in vivo, ip.

Where a name gives a salt, the structure may show the parent alone.

Usually AUC stands for the area under the concentration-time curve, a measure of exposure. A lower AUC goes with less exposure. By CL/F is commonly meant clearance divided by bioavailability, as obtained after extravascular dosing. By Cmax is commonly meant the peak of the concentration-time curve. By Tmax is commonly meant the time from dosing to the highest level. A word on the half-life: it is how long it takes for the measured level to halve.

With `CN1[C@@H]2CC[C@H]1C[C@@H](OC(=O)C(CO)c1ccccc1)C2` (stereo partly shown) [Atropine, Atropine sulfate monohydrate], for the setting “naive mice, i.p.”, the V_F came out at 5.204 ± 0.43 L/kg.

Under setting [1], `C[N+]1(C)[C@@H]2C[C@@H](OC(=O)C(O)(c3cccs3)c3cccs3)C[C@H]1[C@@H]1O[C@@H]12` [Tiotropium, Tiotropium bromide monohydrate] had an AUC of 199 ng·h/mL, a CL/F of 201 ± 5 mL/min/kg and a maximum concentration (Cmax) of 705 ± 22 ng/mL. In addition, the Tmax (male, Swiss, mouse, in vivo, ip, T max, naive mice, plasma) is 4.9 min. Besides, for the setting “male, Swiss, mouse, in vivo, ip, t 1/2elim, naive mice, plasma”, the half-life is ~7.5 min. Where the note is “naive mice, i.p., plasma”, the T max was 4.89 ± 0.24 min and the “t 1/2elim” value turned out to be 7.43 ± 0.12 min. The same molecule came in with a V_F (naive mice, i.p.) of 2.158 ± 0.075 L/kg. Moreover, under “naive mice, i.p., LLOQ 0.5 ng/mL tiotropium, 1 ng/mL atropine”, the “Time after which plasma concentrations were below the LLOQ” value stood at 60 min.

The record behind these values is paper PMC11999743 (Journal of Analytical Methods in Chemistry, 2025).
